As a reminder, the pKi is the Ki on a negative log10 scale, so that one unit is a factor of ten. The term CC50 denotes the concentration at which the toxic effect on the cells reaches its halfway point. Low values mean harm at low concentration, high ones better tolerance by the cells. One may read the AUC as the area under the concentration-time curve, a measure of exposure. Low values mean less exposure, high ones more exposure. As usually defined, the pIC50 is the negative decadic logarithm of the IC50, by convention in mol/L.

Results on four molecules are retold here after ChEMBL document CHEMBL1148691, “Inhibitors of hepatitis C virus NS3.4A protease. Effect of P4 capping groups on inhibitory potency and pharmacokinetics” (Bioorg Med Chem Lett, 2007).

pIC50, pKi: −log10 of the molar value.

In the first series the test system is Plasma. Kind of series: Drug level in CD1 mouse plasma at 50 mg/kg, po. Further details: dose 50 mg/kg, route oral. Particulars: in vivo. The series is classed as ADME, organism-based.
On to `CCC[C@H](NC(=O)[C@@H]1C[C@@H]2CCCC[C@@H]2N1C(=O)[C@@H](NC(=O)[C@@H](NC(=O)c1nccn1C)C1CCCCC1)C(C)(C)C)C(=O)C(=O)NC1CC1`, for which the concentration came to 170 nM.

For the molecule `CCC[C@H](NC(=O)[C@@H]1[C@H]2CCC[C@H]2CN1C(=O)[C@@H](NC(=O)[C@@H](NC(=O)c1cnccn1)C1CCCCC1)C(C)(C)C)C(=O)C(=O)NC1CC1`, the concentration worked out at 370 nM.

In turn, `CCC[C@H](NC(=O)[C@@H]1C[C@@H]2CCCC[C@@H]2N1C(=O)[C@@H](NC(=O)[C@@H](NC(=O)c1cnccn1)C1CCCCC1)C(C)(C)C)C(=O)C(=O)NC1CC1` returned a concentration of 180 nM.

`CCC[C@H](NC(=O)[C@@H]1C[C@@H]2CCCC[C@@H]2N1C(=O)[C@@H](NC(=O)[C@@H](NC(=O)c1ncc[nH]1)C1CCCCC1)C(C)(C)C)C(=O)C(=O)NC1CC1` had a concentration of 10 nM.

Biological target in another series: not listed separately
The experiment in a line: Inhibition of HCV NS3 4A protease. Further details: species or system Hepacivirus hominis.
Details: not given
With `CCC[C@H](NC(=O)[C@@H]1C[C@@H]2CCCC[C@@H]2N1C(=O)[C@@H](NC(=O)[C@@H](NC(=O)c1nccn1C)C1CCCCC1)C(C)(C)C)C(=O)C(=O)NC1CC1`, the pKi is 5.92.

`CCC[C@H](NC(=O)[C@@H]1[C@H]2CCC[C@H]2CN1C(=O)[C@@H](NC(=O)[C@@H](NC(=O)c1cnccn1)C1CCCCC1)C(C)(C)C)C(=O)C(=O)NC1CC1` gave a pKi of 7.40.

Molecule `CCC[C@H](NC(=O)[C@@H]1C[C@@H]2CCCC[C@@H]2N1C(=O)[C@@H](NC(=O)[C@@H](NC(=O)c1cnccn1)C1CCCCC1)C(C)(C)C)C(=O)C(=O)NC1CC1` gave a pKi of 6.82. This pKi is 0.58 log units lower than that of the molecule before.

`CCC[C@H](NC(=O)[C@@H]1C[C@@H]2CCCC[C@@H]2N1C(=O)[C@@H](NC(=O)[C@@H](NC(=O)c1ncc[nH]1)C1CCCCC1)C(C)(C)C)C(=O)C(=O)NC1CC1` had a pKi of 6.92.

Tested on in another series: not listed separately
The experiment in a line: Selectivity index, ratio of CC50 for Huh7cells to IC50 for HCV. The series is classed as functional.
Details: not given
For the molecule `CCC[C@H](NC(=O)[C@@H]1[C@H]2CCC[C@H]2CN1C(=O)[C@@H](NC(=O)[C@@H](NC(=O)c1cnccn1)C1CCCCC1)C(C)(C)C)C(=O)C(=O)NC1CC1`, the Selectivity index is 230.

As for `CCC[C@H](NC(=O)[C@@H]1C[C@@H]2CCCC[C@@H]2N1C(=O)[C@@H](NC(=O)[C@@H](NC(=O)c1cnccn1)C1CCCCC1)C(C)(C)C)C(=O)C(=O)NC1CC1`, the Selectivity index was 43.

As to `CCC[C@H](NC(=O)[C@@H]1C[C@@H]2CCCC[C@@H]2N1C(=O)[C@@H](NC(=O)[C@@H](NC(=O)c1ncc[nH]1)C1CCCCC1)C(C)(C)C)C(=O)C(=O)NC1CC1`, the Selectivity index is greater than 442.

Tested on in the next series: not listed separately
The experiment in a line: Ratio of drug level in CD1 mouse liver to IC50 for HCV.
Details: not given
The series is classed as functional, tissue-based.
As for `CCC[C@H](NC(=O)[C@@H]1[C@H]2CCC[C@H]2CN1C(=O)[C@@H](NC(=O)[C@@H](NC(=O)c1cnccn1)C1CCCCC1)C(C)(C)C)C(=O)C(=O)NC1CC1`, the Ratio is 54.

`CCC[C@H](NC(=O)[C@@H]1C[C@@H]2CCCC[C@@H]2N1C(=O)[C@@H](NC(=O)[C@@H](NC(=O)c1cnccn1)C1CCCCC1)C(C)(C)C)C(=O)C(=O)NC1CC1`: the Ratio was 0.33.

On to `CCC[C@H](NC(=O)[C@@H]1C[C@@H]2CCCC[C@@H]2N1C(=O)[C@@H](NC(=O)[C@@H](NC(=O)c1ncc[nH]1)C1CCCCC1)C(C)(C)C)C(=O)C(=O)NC1CC1`, for which the Ratio is 0.26.

Tested on in the next series: not listed separately
The experiment in a line: Cytotoxicity against Huh7 cells by MTS assay. The settings on record: human. The series is classed as cell-based, Huh-7.
On to `CCC[C@H](NC(=O)[C@@H]1C[C@@H]2CCCC[C@@H]2N1C(=O)[C@@H](NC(=O)[C@@H](NC(=O)c1nccn1C)C1CCCCC1)C(C)(C)C)C(=O)C(=O)NC1CC1`, for which the CC50 is greater than 100000 nM.

In the case of `CCC[C@H](NC(=O)[C@@H]1[C@H]2CCC[C@H]2CN1C(=O)[C@@H](NC(=O)[C@@H](NC(=O)c1cnccn1)C1CCCCC1)C(C)(C)C)C(=O)C(=O)NC1CC1`, the CC50 was determined as 82000 nM.

In the case of `CCC[C@H](NC(=O)[C@@H]1C[C@@H]2CCCC[C@@H]2N1C(=O)[C@@H](NC(=O)[C@@H](NC(=O)c1cnccn1)C1CCCCC1)C(C)(C)C)C(=O)C(=O)NC1CC1`, the midpoint of cytotoxicity, the CC50, lay at 47000 nM.

The molecule `CCC[C@H](NC(=O)[C@@H]1C[C@@H]2CCCC[C@@H]2N1C(=O)[C@@H](NC(=O)[C@@H](NC(=O)c1ncc[nH]1)C1CCCCC1)C(C)(C)C)C(=O)C(=O)NC1CC1` had a CC50 greater than 100000 nM.

The next series concerns Mus musculus. Kind of series: AUC(0 to 8 hrs) in CD1 mouse plasma at 50 mg/kg, po. The series is classed as ADME, organism-based. Also noted: dose 50 mg/kg, route oral. Particulars: in vivo, 6 h.
The molecule `CCC[C@H](NC(=O)[C@@H]1C[C@@H]2CCCC[C@@H]2N1C(=O)[C@@H](NC(=O)[C@@H](NC(=O)c1nccn1C)C1CCCCC1)C(C)(C)C)C(=O)C(=O)NC1CC1` yielded an AUC of 1.3 µM·h.

`CCC[C@H](NC(=O)[C@@H]1[C@H]2CCC[C@H]2CN1C(=O)[C@@H](NC(=O)[C@@H](NC(=O)c1cnccn1)C1CCCCC1)C(C)(C)C)C(=O)C(=O)NC1CC1` returned an AUC of 3 µM·h. Against the preceding molecule, the AUC is about 2.3-fold higher.

On to `CCC[C@H](NC(=O)[C@@H]1C[C@@H]2CCCC[C@@H]2N1C(=O)[C@@H](NC(=O)[C@@H](NC(=O)c1cnccn1)C1CCCCC1)C(C)(C)C)C(=O)C(=O)NC1CC1`, for which the AUC came out at 1.5 µM·h. This AUC lies about 2-fold lower than the previous one.

The molecule `CCC[C@H](NC(=O)[C@@H]1C[C@@H]2CCCC[C@@H]2N1C(=O)[C@@H](NC(=O)[C@@H](NC(=O)c1ncc[nH]1)C1CCCCC1)C(C)(C)C)C(=O)C(=O)NC1CC1` came in with an AUC of 0.05 µM·h. This AUC is about 30-fold lower than that of the molecule before.

A further series concerns Hepatitis C virus. The experiment in a line: Inhibition of HCV replicon RNA production in HUh7 cells. Particulars: Huh-7. The series is classed as functional, organism-based, Hepacivirus hominis.
The molecule `CCC[C@H](NC(=O)[C@@H]1C[C@@H]2CCCC[C@@H]2N1C(=O)[C@@H](NC(=O)[C@@H](NC(=O)c1nccn1C)C1CCCCC1)C(C)(C)C)C(=O)C(=O)NC1CC1` had a pIC50 of less than 5.52.

`CCC[C@H](NC(=O)[C@@H]1[C@H]2CCC[C@H]2CN1C(=O)[C@@H](NC(=O)[C@@H](NC(=O)c1cnccn1)C1CCCCC1)C(C)(C)C)C(=O)C(=O)NC1CC1` gave a pIC50 of 6.46.

`CCC[C@H](NC(=O)[C@@H]1C[C@@H]2CCCC[C@@H]2N1C(=O)[C@@H](NC(=O)[C@@H](NC(=O)c1cnccn1)C1CCCCC1)C(C)(C)C)C(=O)C(=O)NC1CC1` gave a pIC50 of 5.96.

The molecule `CCC[C@H](NC(=O)[C@@H]1C[C@@H]2CCCC[C@@H]2N1C(=O)[C@@H](NC(=O)[C@@H](NC(=O)c1ncc[nH]1)C1CCCCC1)C(C)(C)C)C(=O)C(=O)NC1CC1` had a pIC50 of 6.64.

The test system of a further series is Liver. The experiment in a line: Drug level in CD1 mouse liver at 50 mg/kg, po. Particulars: in vivo, read-out: Activity. Also noted: dose 50 mg/kg, route oral. The series is classed as ADME, organism-based.
Regarding `CCC[C@H](NC(=O)[C@@H]1C[C@@H]2CCCC[C@@H]2N1C(=O)[C@@H](NC(=O)[C@@H](NC(=O)c1nccn1C)C1CCCCC1)C(C)(C)C)C(=O)C(=O)NC1CC1`, the concentration stood at 260 nM.

In the case of `CCC[C@H](NC(=O)[C@@H]1[C@H]2CCC[C@H]2CN1C(=O)[C@@H](NC(=O)[C@@H](NC(=O)c1cnccn1)C1CCCCC1)C(C)(C)C)C(=O)C(=O)NC1CC1`, the concentration was found to be 2400 nM.

Regarding `CCC[C@H](NC(=O)[C@@H]1C[C@@H]2CCCC[C@@H]2N1C(=O)[C@@H](NC(=O)[C@@H](NC(=O)c1cnccn1)C1CCCCC1)C(C)(C)C)C(=O)C(=O)NC1CC1`, the concentration amounted to 360 nM.

Turning to `CCC[C@H](NC(=O)[C@@H]1C[C@@H]2CCCC[C@@H]2N1C(=O)[C@@H](NC(=O)[C@@H](NC(=O)c1ncc[nH]1)C1CCCCC1)C(C)(C)C)C(=O)C(=O)NC1CC1`, the concentration was found to be 60 nM.

The next series concerns Mus musculus. The experiment in a line: AUC(0 to 8 hrs) in CD1 mouse liver at 50 mg/kg, po. Particulars: in vivo, 6 h. The series is classed as ADME, organism-based. Also noted: dose 50 mg/kg, route oral.
For `CCC[C@H](NC(=O)[C@@H]1C[C@@H]2CCCC[C@@H]2N1C(=O)[C@@H](NC(=O)[C@@H](NC(=O)c1nccn1C)C1CCCCC1)C(C)(C)C)C(=O)C(=O)NC1CC1`, the AUC is 2.1 µM·h.

As to `CCC[C@H](NC(=O)[C@@H]1[C@H]2CCC[C@H]2CN1C(=O)[C@@H](NC(=O)[C@@H](NC(=O)c1cnccn1)C1CCCCC1)C(C)(C)C)C(=O)C(=O)NC1CC1`, the AUC was 19 µM·h.

With `CCC[C@H](NC(=O)[C@@H]1C[C@@H]2CCCC[C@@H]2N1C(=O)[C@@H](NC(=O)[C@@H](NC(=O)c1cnccn1)C1CCCCC1)C(C)(C)C)C(=O)C(=O)NC1CC1`, the AUC came to 2.9 µM·h.

As to `CCC[C@H](NC(=O)[C@@H]1C[C@@H]2CCCC[C@@H]2N1C(=O)[C@@H](NC(=O)[C@@H](NC(=O)c1ncc[nH]1)C1CCCCC1)C(C)(C)C)C(=O)C(=O)NC1CC1`, the AUC turned out to be 0.47 µM·h.
